Key:
[1] = tested on: M. tuberculosis multi-drug-resistant clinical strains; assay: microbe, parasite or virus in culture; assay type: cell-based; conditions: for MIC: Mycobacterium tuberculosis
[2] = tested on: M. tuberculosis H37Rv-ΔcydAB; design: species or system mouse (Balb/cBy); conditions: mouse, in vivo

`CCc1nc2ccc(Cl)cn2c1C(=O)NCc1ccc(C2CC3(C2)CN(S(=O)(=O)C(F)(F)F)C3)cc1` [JNJ-2901] gave an MIC ([1]; all 18 clinical strains) of under 1 nM, an MIC ([1]; all 18 clinical strains, Middlebrook 7H9 medium) of at most 0.5 ng/mL and an MIC ([1]; strain 661706043123, resistant to INH, PAS) of at most 0.5 ng/mL. The MIC ([1]; strain 661710016056, resistant to INH, S, PAS) was at most 0.5 ng/mL, the MIC ([1]; strain 661904036200, resistant to INH, PAS) was at most 0.5 ng/mL and the MIC ([1]; strain 661906047849, resistant to INH, RIF, S, PZA, ETH, PAS, EMB, CYC) was at most 0.5 ng/mL. For the same compound, the MIC ([1]; strain 661907010966, resistant to INH, RIF, S, PAS, EMB, PZA, CYC, AMK, KAN, CAP, ETH) was at most 0.5 ng/mL, the MIC ([1]; strain 661908012994, resistant to INH, RIF, S, PZA, PAS, ETH) was at most 0.5 ng/mL and the MIC ([1]; strain 661911031781, resistant to INH, RIF, S, PAS, CYC, ETH, KAN) was at most 0.5 ng/mL. The MIC ([1]; strain 661911038007, resistant to INH, RIF, S, PAS) was at most 0.5 ng/mL, the MIC ([1]; strain 662001006107, resistant to INH, RIF, PZA, S, PAS, CYC, ETH, FQL) was at most 0.5 ng/mL and the MIC ([1]; strain 662001039167, resistant to INH, RIF, S, PAS, EMB, PZA, CYC, KAN) was at most 0.5 ng/mL. The MIC ([1]; strain 662001071666, resistant to INH, RIF, S, PAS, PZA, EMB, ETH) was at most 0.5 ng/mL, the MIC ([1]; strain 662003052840, resistant to INH, EMB, PZA, S, CYC, PAS, ETH) was at most 0.5 ng/mL and the MIC ([1]; strain 662004032055, resistant to INH, RIF, S, PAS, ETH) was at most 0.5 ng/mL. For the same compound, the MIC ([1]; strain 662008015398, resistant to INH, RIF, S, PAS, EMB, PZA, ETH) was at most 0.5 ng/mL, the MIC ([1]; strain 662012006551, resistant to INH, PAS, PZA, ETH (LNZ geno)) was at most 0.5 ng/mL and the MIC ([1]; strain 662101040833, resistant to INH, RIF, PZA, S, PAS, EMB, ETH, KAN, CAP, AMK, CYC) was at most 0.5 ng/mL. The MIC ([1]; strain 662105041666, resistant to INH, RIF, S, PZA, EMB, FQL, ETH, CYC, PAS) was at most 0.5 ng/mL, the MIC ([1]; strain 662108038389, resistant to INH, RIF, S, PAS) was at most 0.5 ng/mL and the “concentration of growth inhibition (in words)” value ([1]; clinical multidrug-resistant M. tuberculosis strains) was “sub-nanomolar”. The “reduction in bacterial burden / lung CFU” value [2] was 4 log.

Reference: PMC11964921 (npj Drug Discovery, 2025)
